This assay relates to Dermanyssus gallinae. The assay can be described thus: Comparative in vitro effect on Dermanyssus gallinae. To be noted: for Type of activity: at the EC100 of the same table line; for EC100 (minimum dosage to reach 100% mortality): fed adult female mites, evaluated after 5 days. As to the method:
15 fed adult female mites of the genus Dermanyssus gallinae fixed on a plastic adhesive film are brought into contact with 50 μl of an aqueous suspension or emulsion of the test substance. The test is carried out with concentrations of 32, 10, 3.2, 1.0, 0.32 to 0.1 ppm. After drying, the film is stuck onto a glass disc. This creates a kind of air bubble around each mite, the lower surface of which is formed by the glass disc and the upper surface by a bulging of the adhesive film. This bubble contains sufficient air for the mite to avoid suffocating. After 5 days, the effect of the test substance is evaluated with the aid of a stereo-microscope by assessing the effect on mortality, egg deposition, egg quality, hatching rate, pupation rate, and development of protonymphs according to the following 4 criteria:
1. if 9 to 10 mites are dead, this indicates a lethal effect (M);
3. if 2 or more mites survive and produce eggs, but no larvae hatch from these eggs and no protonymphs develop, this indicates a development-inhibiting effect (H);
4. if 2 or more mites survive and lay the usual number of normal eggs, from which larvae hatch and develop into protonymphs, this indicates no activity.

The structures appear in SMILES notation. Values joined by “and” are separate entries in the source; they are usually repeats but may differ in a detail not shown here. Equal entries are not always repeated.

With `Fc1cccc(F)c1C1=NC(c2ccc(-c3ccc(C(F)(F)F)cc3)cc2)CO1` (racemic) [Racemate, 2-(2,6-difluorophenyl)-4-(4′-trifluoromethylbiphenyl-4-yl)-4,5-dihydrooxazole, reference compound], the Type of activity is recorded as 1 and the “EC100 (minimum dosage to reach 100% mortality)” value worked out at 0.2 ppm. Besides, where the note is “after 5 days”, the “concentration that completely inhibits the development of protonymphs” value is reported as at least 0.02 ppm and the “type of effect (points 1-4)” value is 1.
As to `Fc1cccc(F)c1C1=NC(c2ccc(-c3ccc(C(F)(F)F)cc3)cc2)CO1` (single isomer, unassigned) [1.2, 2-(2,6-difluoro-phenyl)-4-(4′-trifluoromethylbiphenyl-4-yl)-4,5-dihydro-oxazole], the “concentration to reach an activity of type 1” value (activity of type 1) is “at least 32 ppm”. In addition, the “concentration to reach a considerable efficacy (only activity of type 3)” value (activity of type 3) is on record as “at least 20 ppm”. In addition, under “listed as Enantiomer B”, the Type of activity is 3) and 1; the “EC100 (minimum dosage to reach 100% mortality)” value is 20.0 ppm and 32.0 ppm. Besides, the “type of effect (points 1-4) at concentrations up to 10 ppm” value (concentrations up to 10 ppm) is reported as 4.

The values are drawn from patent publication US20020137781A1, “Preparation and use of enantiomer-pure 2,4-disubstituted oxazolines” (priority 1999, published 2002).
